As usually defined, the IC50 is the midpoint of a concentration-inhibition curve.

This test deals with TNFα (Homo sapiens, UniProt P01375). Nature of the test: TNF induced HEK-Blue assay (NF-kB-driven secreted alkaline phosphatase reporter). The class given is cell-based. Conditions: TNFα 0.5 ng/mL, HEK-Blue-CD40L cells, 18 h; read-out: TNF induced HEK-Blue assay IC50 value. The essentials:
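HEK-Blue-CD40L cells (NF-kB-driven SEAP reporter), 20,000/well, added after 30 min pre-incubation of compound (0.004–25 μM final) with TNFα 0.5 ng/mL final at 37 °C; 18 h incubation. SEAP read with QUANTI-Blue at 620 nm; IC50 from 4-parameter logistic fit, normalized to unstimulated and stimulated DMSO controls.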

Chain of TNFα (P01375 77-233 limits assumed): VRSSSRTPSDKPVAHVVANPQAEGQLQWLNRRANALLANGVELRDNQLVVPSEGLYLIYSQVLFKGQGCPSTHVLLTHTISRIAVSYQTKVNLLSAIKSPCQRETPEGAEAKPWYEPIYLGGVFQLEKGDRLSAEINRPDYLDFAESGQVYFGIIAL

For `CC(Nc1c(Cl)cnc2cc(F)c(-c3ccc(C4(O)CCC(C(=O)O)CC4)cc3)cc12)c1ccccc1F` (racemic) [Example 251, 4-(4-(3-chloro-7-fluoro-4-((1-(2-fluorophenyl)ethyl)amino)quinolin-6-yl)phenyl)-4-hydroxycyclohexane-1-carboxylic acid], the IC50 was less than 1 µM.

On to `Cc1ncccc1-c1ccc(F)c([C@@H](C)Nc2c(Cl)cnc3ccccc23)c1` [Example 475, (R)-3-chloro-N-(1-(2-fluoro-5-(2-methylpyridin-3-yl)phenyl)ethyl)quinolin-4-amine], for which the IC50 is 1 to 10 µM. Under `CC(Nc1c(Cl)cnc2ccc(-c3ccc(C(C)(C)O)cc3)cc12)c1cscn1` (racemic) [Example 202, 2-(4-(3-chloro-4-((1-(thiazol-4-yl)ethyl)amino)quinolin-6-yl)phenyl)propan-2-ol] stands less than 1 µM; under `C[C@@H](Nc1c(Cl)cnc2ccc(-c3cnc(C(C)(C)O)nc3)cc12)c1cc(O)ccc1F` [Example 405, (R)-3-(1-((3-chloro-6-(2-(2-hydroxypropan-2-yl)pyrimidin-5-yl)quinolin-4-yl)amino)ethyl)-4-fluorophenol], less than 1 µM; under `C[C@@H](Nc1c(Cl)cnc2ccc(-c3cnc(C(C)(C)O)nc3)cc12)c1cc(-c2cnn(CC(C)(C)O)c2)ccc1F` [Example 349, (R)-1-(4-(3-(1-((3-chloro-6-(2-(2-hydroxypropan-2-yl)pyrimidin-5-yl)quinolin-4-yl)amino)ethyl)-4-fluorophenyl)-1H-pyrazol-1-yl)-2-methylpropan-2-ol], less than 1 µM.

In the case of `CC(C)(O)c1ncc(-c2ccc3ncc(Cl)c(NCc4ccc(Br)cc4-n4cccn4)c3c2)cn1` [Example 56, 2-(5-(4-((4-bromo-2-(1H-pyrazol-1-yl)benzyl)amino)-3-chloroquinolin-6-yl)pyrimidin-2-yl)propan-2-ol], the concentration for half-maximal inhibition (IC50) was in the range of 10 to 25 µM. With `C[C@@H](Nc1c(Cl)cnc2ccccc12)c1cc(-c2ccc(C#N)nc2)ccc1F` [Example 514, (R)-5-(3-(1-((3-chloroquinolin-4-yl)amino)ethyl)-4-fluorophenyl)picolinonitrile], the IC50 was less than 1 µM. As to `C[C@@H](Nc1c(Cl)cnc2ccc(-c3cnc(C4(O)CCCC4)nc3)cc12)c1ccccc1F` [Example 120, (R)-1-(5-(3-chloro-4-((1-(2-fluorophenyl)ethyl)amino)quinolin-6-yl)pyrimidin-2-yl)cyclopentan-1-ol], the concentration for half-maximal inhibition (IC50) was less than 1 µM. Consider `Cc1ccc(C)c(Nc2c(Cl)c(CO)nc3ccc(-c4cnc(C(C)(C)O)nc4)cc23)c1` [Example 44, 2-(5-(3-chloro-4-((2,5-dimethylphenyl)amino)-2-(hydroxymethyl)quinolin-6-yl)pyrimidin-2-yl)propan-2-ol], for which the IC50 was less than 1 µM. In the case of `CC(C)(O)c1ncc(-c2ccc3ncc(Cl)c(NC(CF)c4ccccc4F)c3c2)cn1` (racemic) [Example 10, 2-(5-(3-chloro-4-((2-fluoro-1-(2-fluorophenyl)ethyl)amino)quinolin-6-yl)pyrimidin-2-yl)propan-2-ol], the concentration for half-maximal inhibition (IC50) is less than 1 µM. Regarding `CC(Nc1c(Cl)cnc2cc(F)c(-c3ccc(C(O)CO)cc3)cc12)c1ccccc1F` (stereo not shown) [Example 290, 1-(4-(3-chloro-7-fluoro-4-((1-(2-fluorophenyl)ethyl)amino)quinolin-6-yl)phenyl)ethane-1,2-diol], the half-inhibitory concentration (IC50) was less than 1 µM.

Regarding `C[C@@H](Nc1c(Cl)cnc2ccc(Cl)cc12)c1cc(-c2cncnc2)ccc1F` [Example 545, (R)-3,6-dichloro-N-(1-(2-fluoro-5-(pyrimidin-5-yl)phenyl)ethyl)quinolin-4-amine], the half-inhibitory concentration (IC50) is less than 1 µM. Turning to `Cc1nc2ccc(-c3cnc(C(C)(C)O)nc3)cc2c(N[C@H](C)c2cccc(OCC(=O)O)c2)c1Cl` [Example 438, (R)-2-(3-(1-((3-chloro-6-(2-(2-hydroxypropan-2-yl)pyrimidin-5-yl)-2-methylquinolin-4-yl)amino)ethyl)phenoxy)acetic acid], the IC50 is 1 to 10 µM. As for `Cc1ccncc1-c1ccc(F)c([C@@H](C)Nc2c(Cl)cnc3ccccc23)c1` [Example 529, (R)-3-chloro-N-(1-(2-fluoro-5-(4-methylpyridin-3-yl)phenyl)ethyl)quinolin-4-amine], the 50% inhibitory concentration (IC50) was less than 1 µM.

On to `CNC(=O)c1ccc(-c2ccc3nc(C)c(Cl)c(Nc4cc(C)ccc4C)c3c2)cn1` [Example 8, 5-(3-chloro-4-((2,5-dimethylphenyl)amino)-2-methylquinolin-6-yl)-N-methylpicolinamide], for which the IC50 was less than 1 µM. `CNC(=O)CN1CCN(c2ncc(-c3ccc4ncc(Cl)c(N[C@H](C)c5ccccc5F)c4c3)cn2)CC1` [Example 89, (R)-2-(4-(5-(3-chloro-4-((1-(2-fluorophenyl)ethyl)amino)quinolin-6-yl)pyrimidin-2-yl)piperazin-1-yl)-N-methylacetamide]: the IC50 was less than 1 µM. For `C=Cc1ccc(F)c(C(CC)Nc2c(Cl)cnc3ccc(-c4cnc(C(C)(C)O)nc4)cc23)n1` (racemic) [Example 126, 2-(5-(3-chloro-4-((1-(3-fluoro-6-vinylpyridin-2-yl)propyl)amino)quinolin-6-yl)pyrimidin-2-yl)propan-2-ol] the value was less than 1 µM; for `CCC(Nc1c(Cl)cnc2ccc(-c3cnc(C(C)(C)O)nc3)cc12)c1nc(C(N)=O)ccc1F` (stereo not shown) [Example 129, 6-(1-((3-chloro-6-(2-(2-hydroxypropan-2-yl)pyrimidin-5-yl)quinolin-4-yl)amino)propyl)-5-fluoropicolinamide], less than 1 µM. For the compound `COc1ccc(F)c([C@H](C)Nc2c(Cl)cnc3ccccc23)c1` [Example 476, (S)-3-chloro-N-(1-(2-fluoro-5-methoxyphenyl)ethyl)quinolin-4-amine], the IC50 was 1 to 10 µM. On to `C[C@H](Nc1c(Cl)cnc2ccc(-c3cnc(C(C)(C)O)nc3)cc12)[C@H]1CCCN(S(=O)(=O)c2cnn(C)c2)C1` [Example 564, 2-(5-(3-chloro-4-(((S)-1-((S)-1-((1-methyl-1H-pyrazol-4-yl)sulfonyl)piperidin-3-yl)ethyl)amino)quinolin-6-yl)pyrimidin-2-yl)propan-2-ol], for which the IC50 fell in the range of 1 to 10 µM. In the case of `Cc1nc2ccc(-c3cnc(C(C)(C)O)nc3)cc2c(N[C@@H](c2cc(C(N)CO)ccc2F)C(F)F)c1Cl` (mixture of isomers) [Example 434, 2-(5-(4-(((1 S)-1-(5-(1-amino-2-hydroxyethyl)-2-fluorophenyl)-2,2-difluoroethyl)amino)-3-chloro-2-methylquinolin-6-yl)pyrimidin-2-yl)propan-2-ol], the half-inhibitory concentration (IC50) was less than 1 µM. Regarding `CC(Nc1c(Cl)cnc2cc(F)c(-c3cnc(N4CCN(C(=O)[C@H](N)CO)CC4)nc3)cc12)c1ccccc1F` (single isomer, unassigned) [Example 606], the half-maximal inhibitory concentration (IC50) is less than 1 µM. On to `Cc1ccc(C)c(Nc2c(C)c(C)nc3ccc(-c4cnc(C(C)(C)O)nc4)cc23)c1` [Example 184, 2-(5-(4-((2,5-dimethylphenyl)amino)-2,3-dimethylquinolin-6-yl)pyrimidin-2-yl)propan-2-ol], for which the IC50 was less than 1 µM. Consider `CC(Nc1c(Cl)cnc2ccc(-c3ccc(C(C)(C)O)cc3)cc12)c1cccs1` (racemic) [Example 199, 2-(4-(3-chloro-4-((1-(thiophen-2-yl)ethyl)amino)quinolin-6-yl)phenyl)propan-2-ol], for which the IC50 is less than 1 µM. `C[C@@H](Nc1c(Cl)cnc2ccccc12)c1cc(-c2cnn(C(F)F)c2)ccc1F` [Example 471, (R)-3-chloro-N-(1-(5-(1-(difluoromethyl)-1H-pyrazol-4-yl)-2-fluorophenyl)ethyl) quinolin-4-amine]: the IC50 lay in the range of 1 to 10 µM.
